Test: Inhibition of NS5A in HCV genotype 1b infected in human HuH7 replicon cells assessed as reduction in subgenomic viral RNA replication treated for 2 days followed by compound washout and subsequent compound dosing measured after 1 day by SEAP reporter gene assay

Compound | EC50 [nM]
CS(=O)(=O)N[C@@H](C(=O)N1CCC[C@H]1c1ncc(-c2ccc(-c3ccc(-c4cnc([C@@H]5CCCN5C(=O)[C@H](NS(C)(=O)=O)c5ccccc5)s4)cc3)cc2)s1)c1ccccc1 | 3.4
CCCC[C@H](NC(=O)OC)C(=O)N1CCC[C@H]1c1ncc(-c2ccc(-c3ccc(-c4cnc([C@@H]5CCCN5C(=O)[C@H](CCCC)NC(=O)OC)s4)cc3)cc2)s1 | 237
O=C(CCN1CCCC1)N[C@@H](C(=O)N1CCC[C@H]1c1ncc(-c2ccc(-c3ccc(-c4cnc([C@@H]5CCCN5C(=O)[C@H](NC(=O)CCN5CCCC5)c5ccccc5)s4)cc3)cc2)s1)c1ccccc1 | 4
C[C@@H](NC(=O)C1CC1)C(=O)N1CCC[C@H]1c1ncc(-c2ccc(-c3ccc(-c4cnc([C@@H]5CCCN5C(=O)[C@@H](C)NC(=O)C5CC5)s4)cc3)cc2)s1 | 115
O=C(CCN1CCCCC1)N[C@@H](C(=O)N1CCC[C@H]1c1ncc(-c2ccc(-c3ccc(-c4cnc([C@@H]5CCCN5C(=O)[C@H](NC(=O)CCN5CCCCC5)c5ccccc5)s4)cc3)cc2)s1)c1ccccc1 | 0.89
O=C(N[C@@H](C(=O)N1CCC[C@H]1c1ncc(-c2ccc(-c3ccc(-c4cnc([C@@H]5CCCN5C(=O)[C@H](NC(=O)N5CCOCC5)c5ccccc5)s4)cc3)cc2)s1)c1ccccc1)N1CCOCC1 | 0.02
CC(C)C(=O)N[C@@H](C(=O)N1CCC[C@H]1c1ncc(-c2ccc(-c3ccc(-c4cnc([C@@H]5CCCN5C(=O)[C@H](NC(=O)C(C)C)c5ccccc5)s4)cc3)cc2)s1)c1ccccc1 | 0.009
CS(=O)(=O)N[C@H](C(=O)N1CCC[C@H]1c1ncc(-c2ccc(-c3ccc(-c4cnc([C@@H]5CCCN5C(=O)[C@H](NS(C)(=O)=O)c5ccccc5)s4)cc3)cc2)s1)c1ccccc1 | 149
O=C(N[C@H](C(=O)N1CCC[C@H]1c1ncc(-c2ccc(-c3ccc(-c4cnc([C@@H]5CCCN5C(=O)[C@H](NC(=O)c5ccncc5)c5ccccc5)s4)cc3)cc2)s1)c1ccccc1)c1ccncc1 | 0.37
CC(C)(C)[C@@H](NC(=O)C1CC1)C(=O)N1CCC[C@H]1c1ncc(-c2ccc(-c3ccc(-c4cnc([C@@H]5CCCN5C(=O)[C@H](NC(=O)C5CC5)C(C)(C)C)s4)cc3)cc2)s1 | 1600
CCN(CC)CCC(=O)N[C@H](C(=O)N1CCC[C@H]1c1ncc(-c2ccc(-c3ccc(-c4cnc([C@@H]5CCCN5C(=O)[C@H](NC(=O)CCN(CC)CC)c5ccccc5)s4)cc3)cc2)s1)c1ccccc1 | 22
O=C(Cc1ccccc1)N[C@H](C(=O)N1CCC[C@H]1c1ncc(-c2ccc(-c3ccc(-c4cnc([C@@H]5CCCN5C(=O)[C@H](NC(=O)Cc5ccccc5)c5ccccc5)s4)cc3)cc2)s1)c1ccccc1 | 2.9
O=C(N[C@@H](C(=O)N1CCC[C@H]1c1ncc(-c2ccc(-c3ccc(-c4cnc([C@@H]5CCCN5C(=O)[C@H](NC(=O)c5cccnc5)c5ccccc5)s4)cc3)cc2)s1)c1ccccc1)c1cccnc1 | 0.13
CC(=O)N[C@H](C(=O)N1CCC[C@H]1c1ncc(-c2ccc(-c3ccc(-c4cnc([C@@H]5CCCN5C(=O)[C@H](NC(C)=O)c5ccccc5)s4)cc3)cc2)s1)c1ccccc1 | 0.59
CC(C)C(=O)N[C@H](C(=O)N1CCC[C@H]1c1ncc(-c2ccc(-c3ccc(-c4cnc([C@@H]5CCCN5C(=O)[C@H](NC(=O)C(C)C)c5ccccc5)s4)cc3)cc2)s1)c1ccccc1 | 0.31
O=C(N[C@@H](C(=O)N1CCC[C@H]1c1ncc(-c2ccc(-c3ccc(-c4cnc([C@@H]5CCCN5C(=O)[C@H](NC(=O)c5ccncc5)c5ccccc5)s4)cc3)cc2)s1)c1ccccc1)c1ccncc1 | 0.011

Source: BindingDB's records for doi:10.1016/j.ejmech.2019.02.016 (National Health Research Institutes, 2019)
